How the values were obtained:
[1] = system: contents of the cecum (enterobacteria); assay: pH change of dispersion of rat cecal contents in PBS (C-PBS) with lactulose, shaken at 37° C. under anaerobic condition (Test Example 2); design: species or system SD male rat
Method: A 1/15 M phosphate buffer solution (NaH2PO4-Na2HPO4; pH 7.3; hereinafter referred to as PBS) was made isotonic by addition of sodium chloride and adjusted to pH 6.8 by CO2 bubbling. The contents of the cecum of an SD male rat was dispersed therein to prepare a 10 w/v % dispersion of the cecal contents in PBS (hereinafter referred to as C-PBS). To 10 ml of C-PBS was added 100 mg of lactulose, and the mixture was shaken (50 strokes/min) at 37° C. under an anaerobic condition, and the pH change was measured. As a control, the same test was conducted on no lactulose-administered C-PBS. The same test was carried out on a mixture of 30 w/v % C-PBS and lactulose. As shown in the table, the pH of the cecal contents rapidly decreases by the addition of lactulose.

[2] = pH in the cecum with time after oral lactulose aqueous solution (Test Example 3); assay type: in vivo, SD male rats; conditions: for pH in the cecum: oral 100 mg/rat
Method: SD male rats deprived of food overnight were orally given a lactulose aqueous solution (100 mg/rat), and the pH in the cecum was measured with time.

enterobacteria = assay: generation of organic acid by the action of enterobacteria
[3] = system: contents of the cecum of a rat (enterobacteria); assay: pH of 10 w/v % cecal contents dispersion (CPBS) with saccharide (Test Example 7); conditions: 200 mg saccharide in 20 ml 10 w/v % CPBS, 37° C.
Method: An isotonic phosphate buffer solution (pH: 7.3; PBS) was adjusted to pH 6.8 by CO2 bubbling. The contents of the cecum of a rat deprived of food for 24 hours was dispersed, therein to prepare a 10 w/v % dispersion of the cecal contents in PBS (CPBS). To 20 ml of CPBS was added 200 mg of a saccharide, and the mixture was shaken in a water bath at 37° C., and the pH of the CPBS was measured with time.

[4] = water solubility of saccharides and sugar alcohols
[5] = phosphorus concentration in plasma after salmon calcitonin; assay type: in vivo; conditions: beagle dogs in fasted condition, s.c., 50 IU/animal, versus untreated control
Method: The following solution was subcutaneously administered to beagle dogs in fasted condition. Blood was taken with time to determine the phosphorus concentration in plasma using Inorganic Phosphorus E-HA Test Wako (Wako Pure Chemical Industries, Ltd.).
1% Gelatin solution containing 50 IU/0.2 ml of salmon calcitonin (pH 3; 0.2 ml; 50 IU/animal)
A single tablet of the preparation obtained in Examples 21, 22 or 24 or two tablets of the preparation obtained in Example 23 was administered orally to beagle dogs together with 30 ml of water, and blood was taken with time to determine the phosphorus concentration in plasma.
A single tablet of the preparation obtained in Examples 25, 26 or 28 or two tablets of the preparation obtained in Example 27 was administered orally to beagle dogs together with 30 ml of water, and blood was taken with time to determine the phosphorus concentration in plasma.

OC[C@H]1O[C@@H](O[C@@H]2[C@@H](CO)OC(O)(CO)[C@H]2O)[C@H](O)[C@@H](O)[C@H]1O (mixture of isomers) [lactulose]
pH of C-PBS ([1]; 10 w/v % C-PBS 10 ml, lactulose 100 mg, 0 hr): 6.42 | pH of C-PBS ([1]; 10 w/v % C-PBS 10 ml, lactulose 100 mg, 2 hr): 5.93 | pH of C-PBS ([1]; 10 w/v % C-PBS 10 ml, lactulose 100 mg, 4 hr): 5.64 | pH of C-PBS ([1]; 10 w/v % C-PBS 10 ml, lactulose 100 mg, 6 hr): 5.41 | pH of C-PBS ([1]; 10 w/v % C-PBS 10 ml, lactulose 100 mg, 8 hr): 5.27 | pH of C-PBS ([1]; 10 w/v % C-PBS 10 ml, lactulose 100 mg, 24 hr): 4.76 | pH of C-PBS ([1]; 30 w/v % C-PBS and lactulose, 0 hr): 6.42 | pH of C-PBS ([1]; 30 w/v % C-PBS and lactulose, 2 hr): 5.39 | pH of C-PBS ([1]; 30 w/v % C-PBS and lactulose, 4 hr): 5.25 | pH of C-PBS ([1]; 30 w/v % C-PBS and lactulose, 6 hr): 5.15 | pH of C-PBS ([1]; 30 w/v % C-PBS and lactulose, 8 hr): 5.08 | duration of pH reduction in the cecum ([2]; 100 mg/animal): 8 hours | pH in the cecum reduced to ([2]; 100 mg/animal, in 3 to 4 hours from the administration): about 5.5 | pH in the cecum ([2]; 1 hr): 8.2 | pH in the cecum ([2]; 2 hr): 6.8 | pH in the cecum ([2]; 3 hr): 6.2 | pH in the cecum ([2]; 4 hr): 5.5 | pH in the cecum ([2]; 5 hr): 5.6 | pH in the cecum ([2]; 6 hr): 5.8 | pH in the cecum ([2]; 7 hr): 5.3 | pH in the cecum ([2]; rats deprived of food overnight, 0 hr): 7.6 | rapid generation of an organic acid by enterobacteria (enterobacteria): degraded rapidly to generate an organic acid

O=C(CO)[C@@H](O)[C@H](O)[C@H](O)CO [fructose]
degradation by enterobacteria with organic acid generation (pH of CPBS with time) [3]: degraded by enterobacteria to generate an organic acid similarly to lactulose | water solubility [4]: high | rapid generation of an organic acid by enterobacteria (enterobacteria): generate an organic acid rapidly

O=C[C@H](O)[C@@H](O)[C@@H](O)[C@H](O)CO [galactose]
degradation by enterobacteria with organic acid generation (pH of CPBS with time) [3]: degraded by enterobacteria to generate an organic acid similarly to lactulose | water solubility [4]: high | rapid generation of an organic acid by enterobacteria (enterobacteria): generate an organic acid rapidly

OC[C@H]1O[C@@H](O[C@H]2[C@H](O)[C@@H](O)C(O)O[C@@H]2CO)[C@H](O)[C@@H](O)[C@H]1O (stereo partly drawn) [lactose]
rapid generation of an organic acid by enterobacteria (enterobacteria): no rapid generation of an organic acid

Cc1occc(=O)c1O [maltol]
water solubility [4]: low | rapid generation of an organic acid by enterobacteria (enterobacteria): rapid generation of an organic acid was not observed

OC[C@H]1O[C@H](O[C@H]2[C@H](O)[C@@H](O)[C@H](O)O[C@@H]2CO)[C@H](O)[C@@H](O)[C@@H]1O [maltose]
degradation by enterobacteria with organic acid generation (pH of CPBS with time) [3]: degraded by enterobacteria to generate an organic acid similarly to lactulose | rapid generation of an organic acid by enterobacteria (enterobacteria): generate an organic acid rapidly

OC[C@@H](O)[C@@H](O)[C@H](O)[C@H](O)CO [mannitol]
water solubility [4]: medium | rapid generation of an organic acid by enterobacteria (enterobacteria): rapid generation of an organic acid was not observed

O=C[C@H](O)[C@H](O)[C@H](O)CO [ribose]
water solubility [4]: low | rapid generation of an organic acid by enterobacteria (enterobacteria): no rapid generation of an organic acid

OC[C@@H](O)[C@@H](O)[C@H](O)[C@@H](O)CO [sorbitol]
water solubility [4]: high | rapid generation of an organic acid by enterobacteria (enterobacteria): rapid generation of an organic acid was not observed

OC[C@H]1O[C@@](CO)(O[C@H]2O[C@H](CO)[C@@H](O)[C@H](O)[C@H]2O)[C@@H](O)[C@@H]1O [sucrose]
degradation by enterobacteria with organic acid generation (pH of CPBS with time) [3]: degraded by enterobacteria to generate an organic acid similarly to lactulose | water solubility [4]: high | rapid generation of an organic acid by enterobacteria (enterobacteria): generate an organic acid rapidly

OC[C@@H](O)[C@H](O)[C@@H](O)CO [xylitol]
water solubility [4]: high | rapid generation of an organic acid by enterobacteria (enterobacteria): rapid generation of an organic acid was not observed

O=C[C@H](O)[C@@H](O)[C@H](O)CO [xylose]
water solubility [4]: high | rapid generation of an organic acid by enterobacteria (enterobacteria): generate an organic acid rapidly

fructooligosaccharide
degradation by enterobacteria with organic acid generation (pH of CPBS with time) [3]: degraded by enterobacteria to generate an organic acid similarly to lactulose

salmon calcitonin
phosphorus level in plasma after subcutaneous administration [5]: suppressed immediately after the administration
